Experimental data: patent US9145408B2 (priority 2008, dated 2015)
Structures can show the parent of a compound that is named as a salt.

Experiments:
[1] = system: FCA-induced thermal hyperalgesia; assay: FCA model of inflammatory pain, thermal hyperalgesia; assay type: in vivo; settings: rat FCA model
Protocol: (§1) Test Animals: Each experiment used rats weighing between 200-260 g at the start of the experiment. The rats were group-housed and had free access to food and water at all times, except prior to oral administration of a Substituted-Quinoxaline-Type Bridged-Piperidine Compound when food was removed for 16 hours before dosing. A control group acted as a comparison to rats treated with a Substituted-Quinoxaline-Type Bridged-Piperidine Compound. The control group was administered the carrier for the Substituted-Quinoxaline-Type Bridged-Piperidine Compound. The volume of carrier administered to the control group was the same as the volume of carrier and Substituted-Quinoxaline-Type Bridged-Piperidine Compound administered to the test group.
Inflammatory Pain: To assess the actions of a Substituted-Quinoxaline-Type Bridged-Piperidine Compound for the treatment or prevention of inflammatory pain, the Freund's complete adjuvant (“FCA”) model of inflammatory pain was used. […] The left hind paw of each animal was administered a 50 μL intraplantar injection of 50% FCA. 24 hour post injection, the animal was assessed for response to noxious mechanical stimuli by determining the PWT, or to noxious thermal stimuli by determining the PWL, as described below. […] Responses to noxious mechanical stimuli were then determined 1, 3, 5 and 24 hours post administration. Percentage reversal of hyperalgesia for each animal was defined as: […]
Response to Thermal Stimuli as an Assessment of Thermal Hyperalgesia: The plantar test can be used to assess thermal hyperalgesia. For this test, hind paw withdrawal latencies (PWL) to a noxious thermal stimulus were determined using a plantar test apparatus (commercially available from Ugo Basile of Italy) following the technique described by K. Hargreaves et al., “A New and Sensitive Method for Measuring Thermal Nociception in Cutaneous Hyperalgesia,” Pain 32(1):77-88 (1988). The maximum exposure time was set at 32 seconds to avoid tissue damage and any directed paw withdrawal from the heat source was taken as the end point. Three latencies were determined at each time point and averaged. Either only the affected (ipsilateral) paw was tested, or both the ipsilateral and contralateral (non-injured) paw were tested.

[2] = abnormal behavioral side effects (sedation, hyperactivity, hypoactivity); settings: in vivo
[3] = system: nerve injury-induced mechanical hyperalgesia; assay: Seltzer partial sciatic nerve ligation model of neuropathic pain, mechanical hyperalgesia; assay type: in vivo; settings: rat Seltzer model, 3 mg/kg
Protocol: as §1
Partial ligation of the left sciatic nerve was performed under isoflurane/O2 inhalation anesthesia. Following induction of anesthesia, the left thigh of the rat was shaved and the sciatic nerve exposed at high thigh level through a small incision and was carefully cleared of surrounding connective tissues at a site near the trocanther just distal to the point at which the posterior biceps semitendinosus nerve branches off of the common sciatic nerve. A 7-0 silk suture was inserted into the nerve with a ⅜ curved, reversed-cutting mini-needle and tightly ligated so that the dorsal ⅓ to ½ of the nerve thickness was held within the ligature. The wound was closed with a single muscle suture (4-0 nylon (Vicryl)) and vetbond tissue glue. Following surgery, the wound area was dusted with antibiotic powder. Sham-treated rats underwent an identical surgical procedure except that the sciatic nerve was not manipulated. Following surgery, animals were weighed and placed on a warm pad until they recovered from anesthesia. Animals were then returned to their home cages until behavioral testing began. The animals were assessed for response to noxious mechanical stimuli by determining PWT, as described below, prior to surgery (baseline), then immediately prior to and 1, 3, and 5 hours after drug administration for rear paw of the animal. Percentage reversal of neuropathic hyperalgesia was defined as: […]
Response to Mechanical Stimuli as an Assessment of Mechanical Hyperalgesia: The paw pressure assay was used to assess mechanical hyperalgesia. For this assay, hind paw withdrawal thresholds (PWT) to a noxious mechanical stimulus were determined using an analgesymeter (Model 7200, commercially available from Ugo Basile of Italy) as described in C. […] The maximum weight that could be applied to the hind paw was set at 250 g and the end point is taken was complete withdrawal of the paw. PWT was determined once for each rat at each time point and either only the affected (ipsilateral) paw was tested, or both the ipsilateral and contralateral (non-injured) paw were tested.

[4] = target: hERG (human ether a-go-go gene) (Homo sapiens (Human), UniProt Q12809); assay: cardiovascular side effects: in vitro hERG assay and APD in guinea pig purkinje fibers; assay type: cell-based; settings: in vitro hERG assay; APD in guinea pig purkinje fibers
Protocol: These side effects were determined using known methods: an in vitro hERG (human ether a-go-go gene) assay as disclosed in Z. Zhou et al., “Properties of HERG Channels Stably Expressed in HEK 293 Cells Studied at Physiological Temperature,” Biophysical J. 74:230-241 (1998); and APD (action potential duration) in guinea pig purkinje fibers as disclosed in J. A. Hey, “The Guinea Pig Model for Assessing Cardiotoxic Proclivities of Second Generation Antihistamines,” Arzneimittelforschung 46(8):834-837 (1996).

[5] = 5 mg/kg dose, 3 hours after administration
[6] = 5 mg/kg dose, 5 hours after administration

SMILES	% reversal of thermal hyperalgesia ([1]; 5 mg/kg dose, 1 hour after administration)	% reversal of thermal hyperalgesia [1, 5]	% reversal of thermal hyperalgesia [1, 6]	abnormal behavioral side effects, such as sedation, hyperactivity and/or hypoactivity [2]	% reversal of thermal hyperalgesia ([1]; 3 mg/kg dose, 1 hour after administration)	% reversal of thermal hyperalgesia ([1]; 3 mg/kg dose, 3 hours after administration)	% reversal of thermal hyperalgesia ([1]; 3 mg/kg dose, 5 hours after administration)	ED50 value for reversal of thermal hyperalgesia ([1]; 1 hour after administration)	ED50 value for reversal of thermal hyperalgesia ([1]; 3 hours after administration)	ED50 value for reversal of thermal hyperalgesia ([1]; 5 hours after administration)	% reversal of mechanical hyperalgesia ([3]; 1 hour after administration)	% reversal of mechanical hyperalgesia ([3]; 3 hours after administration)	% reversal of mechanical hyperalgesia ([3]; 5 hours after administration)	% reversal of mechanical hyperalgesia ([3]; 7 hours after administration)	cardiovascular side effects [4]
O=C(O)c1nc2ccccc2n([C@H]2C[C@H]3CC[C@@H](C2)N3C2CCCCCCCCCC2)c1=O [Compound 358]	34%	46%	79%	reduced abnormal behavioral side effects											
O=C(O)c1nc2ccccc2n([C@H]2C[C@H]3CC[C@@H](C2)N3[C@H]2C[C@@H]3CCC[C@@H](C3)C2)c1=O [Compound 361, 4-((endo)-8-((exo)-bicyclo[3.3.1]nonan-3-yl)-8-azabicyclo[3.2.1]octan-3-yl)-3-oxo-3,4-dihydroquinoxaline-2-carboxylic acid]		90%	70%	reduced abnormal behavioral side effects											
O=C(O)c1nc2ccccc2n([C@H]2C[C@H]3CCC[C@@H](C2)N3C2CC3CCCC(C3)C2)c1=O (stereo partly drawn) [Compound 362, 4-((endo)-9-((exo)-bicyclo[3.3.1]nonan-3-yl)-9-azabicyclo[3.3.1]nonan-3-yl)-3-oxo-3,4-dihydroquinoxaline-2-carboxylic acid]				reduced abnormal behavioral side effects	86%	51%	27%	0.8 mg/kg	1.5 mg/kg	3.0 mg/kg	60%	60%	50%	40%	reduced cardiovascular side effects
C[C@@H]1C[C@@H]2C[C@H](C1)C[C@@H](N1[C@@H]3CCC[C@H]1C[C@@H](n1c(=O)c(C(=O)O)nc4ccccc41)C3)C2 [Compound 405, (exo, endo, endo)-4-(9-(7-methylbicyclo[3.3.1]nonan-3-yl)-9-azabicyclo[3.3.1]nonan-3-yl)-3-oxo-3,4-dihydroquinoxaline-2-carboxylic acid potassium salt]											70%	70%	70%		
